The values that follow come from patent publication US9242970B2 (ACTELION PHARMACEUTICALS LTD., priority 2010, dated 2016).

Experiment [1] concerns rat. As to conditions: cited from earlier work.
Experiment [2] relates to rat. As to conditions: rat model; cited from earlier work.
For experiment [3], the system named is rat. As to conditions: cited from earlier work. This is another data set of the same source.
The target in a further experiment is human orexin-1 receptor (Homo sapiens (Human), UniProt O43613). As to the kind of experiment: In vitro assay: intracellular calcium measurements (FLIPR), antagonistic activity. The format is cell-based. As to conditions: CHO cells, 3 nM orexin-A, compound incubation 120 min; marked values are geometric means of n = 2-6; read-out: IC50 OX1. (Calcium assays in cells follow changes in intracellular calcium, usually with a dye or a luminescent sensor.)
Sequence of human orexin-1 receptor (O43613 whole entry): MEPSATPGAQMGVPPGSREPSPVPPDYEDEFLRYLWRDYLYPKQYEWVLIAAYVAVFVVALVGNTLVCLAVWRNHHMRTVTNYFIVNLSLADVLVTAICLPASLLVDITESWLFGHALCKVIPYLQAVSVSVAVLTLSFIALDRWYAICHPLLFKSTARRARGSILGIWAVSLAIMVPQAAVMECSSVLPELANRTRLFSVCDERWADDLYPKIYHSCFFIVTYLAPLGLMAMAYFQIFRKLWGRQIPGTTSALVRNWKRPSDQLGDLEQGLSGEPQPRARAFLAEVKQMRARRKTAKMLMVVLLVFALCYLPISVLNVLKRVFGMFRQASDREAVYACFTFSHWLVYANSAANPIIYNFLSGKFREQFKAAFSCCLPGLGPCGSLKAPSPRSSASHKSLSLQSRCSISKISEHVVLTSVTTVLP

The next experiment has as its target human orexin-2 receptor (Homo sapiens (Human), UniProt O43614). Described as above. It is filed as cell-based. As to conditions: CHO cells, 3 nM orexin-A, compound incubation 120 min; marked values are geometric means of n = 2-6; read-out: IC50 OX2.

Sequence of human orexin-2 receptor (O43614 whole entry): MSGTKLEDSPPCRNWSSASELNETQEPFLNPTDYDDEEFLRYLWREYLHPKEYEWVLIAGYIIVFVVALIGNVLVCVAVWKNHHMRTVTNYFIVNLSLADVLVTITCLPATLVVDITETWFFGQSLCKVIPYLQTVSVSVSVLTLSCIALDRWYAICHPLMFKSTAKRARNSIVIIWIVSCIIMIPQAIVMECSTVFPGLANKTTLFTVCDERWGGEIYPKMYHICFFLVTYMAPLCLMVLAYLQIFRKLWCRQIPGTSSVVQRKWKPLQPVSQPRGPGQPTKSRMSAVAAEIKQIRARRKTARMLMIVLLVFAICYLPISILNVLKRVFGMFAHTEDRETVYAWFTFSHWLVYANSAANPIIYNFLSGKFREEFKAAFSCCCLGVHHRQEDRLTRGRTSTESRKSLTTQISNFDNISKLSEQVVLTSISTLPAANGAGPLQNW

Turning to `CNC(=O)[C@@H](c1ccccc1)N1CCc2cc(OC)c(OC)cc2[C@@H]1CCc1ccc(C(F)(F)F)cc1` [(2R)-2-{(1S)-6,7-dimethoxy-1-[2-(4-trifluoromethyl-phenyl)-ethyl]-3,4-dihydro-1H-isoquinolin-2-yl}-N-methyl-2-phenyl-acetamide], in the experiment on rat [1], the “alertness (active wake and locomotion)” value is given as “decrease alertness”; the “time spent in REM and NREM sleep” value was “dose-dependently increase the time spent in both REM and NREM sleep”. Besides, in the experiment with rat [2], the memory function entry is on record as “enhance memory function”. Also, the “activity in post-traumatic stress disorder model” value in the experiment on rat [3] was “active”.

A word on the IC50: it is the midpoint of a concentration-inhibition curve. Regarding `COc1cccc(OC)c1C1CC(C)C(=O)N1Cc1ccc(OCC(F)(F)F)cc1` (stereo not shown) [Example 418, 5-(2,6-dimethoxyphenyl)-3-methyl-1-(4-(2,2,2-trifluoroethoxy)benzyl)pyrrolidin-2-one], the figures for the IC50 at human orexin-1 receptor and at human orexin-2 receptor were 430 nM and 323 nM, respectively.

On to `COc1cccc(OC)c1C1CC(C)C(=O)N1Cc1cccc(OCC(F)F)c1` (stereo not shown) [Example 419, 1-(3-(2,2-difluoroethoxy)benzyl)-5-(2,6-dimethoxyphenyl)-3-methylpyrrolidin-2-one], for which the IC50 was determined as 143 nM at human orexin-1 receptor and 173 nM at human orexin-2 receptor.

Consider `COc1cccc(OC)c1C1CC(C)C(=O)N1Cc1ccc(OCC(F)F)cc1` (stereo not shown) [Example 420, 1-(4-(2,2-difluoroethoxy)benzyl)-5-(2,6-dimethoxyphenyl)-3-methylpyrrolidin-2-one], for which the IC50 at human orexin-1 receptor is 586 nM; at human orexin-2 receptor it was 549 nM.

`COc1cccc(OC)c1C1CC(C)C(=O)N1Cc1cccc(OCCF)c1` (stereo not shown) [Example 421, 5-(2,6-dimethoxyphenyl)-1-(3-(2-fluoroethoxy)benzyl)-3-methylpyrrolidin-2-one]: the values for the IC50 at human orexin-1 receptor and on human orexin-2 receptor were 498 nM and 237 nM, respectively.

With `COc1cccc(OC)c1C1CC(C)C(=O)N1Cc1ccc(OCCF)cc1` (stereo not shown) [Example 422, 5-(2,6-dimethoxyphenyl)-1-(4-(2-fluoroethoxy)benzyl)-3-methylpyrrolidin-2-one], the IC50 amounted to 863 nM at human orexin-1 receptor and 1040 nM at human orexin-2 receptor.

For `COc1cccc(OC)c1C1CC(C)C(=O)N1Cc1cccc(OC(C)C)c1` (stereo not shown) [Example 423, 5-(2,6-dimethoxyphenyl)-1-(3-isopropoxybenzyl)-3-methylpyrrolidin-2-one], the results for the IC50 at human orexin-1 receptor and on human orexin-2 receptor were 101 nM and 93 nM, respectively.

For the molecule `COc1cccc(OC)c1C1CC(C)C(=O)N1Cc1cccc(OC(F)(F)C(F)F)c1` (stereo not shown) [Example 424, 5-(2,6-dimethoxyphenyl)-3-methyl-1-(3-(1,1,2,2-tetrafluoroethoxy)benzyl)pyrrolidin-2-one], the figures for the IC50 at human orexin-1 receptor and on human orexin-2 receptor were 27 nM and 13 nM, respectively.

As to `COc1cc(CN2C(=O)C(C)CC2c2c(OC)cccc2OC)ccc1OC(F)F` (stereo not shown) [Example 425, 1-(4-(difluoromethoxy)-3-methoxybenzyl)-5-(2,6-dimethoxyphenyl)-3-methylpyrrolidin-2-one], the IC50 on human orexin-1 receptor was determined as 311 nM; at human orexin-2 receptor, 235 nM.

Turning to `COc1cccc(OC)c1C1CC(C)C(=O)N1Cc1ccc2sc3ccccc3c2c1` (stereo not shown) [Example 426, 1-(dibenzo[b,d]thiophen-2-ylmethyl)-5-(2,6-dimethoxyphenyl)-3-methylpyrrolidin-2-one], the IC50 came out at 6 nM at human orexin-1 receptor and 8 nM on human orexin-2 receptor.

For the molecule `COc1ccc2nc(C)oc2c1C1CCCC(=O)N1Cc1cccc(-c2ccccc2)c1` (stereo not shown) [Example 440, 1-([1,1′-biphenyl]-3-ylmethyl)-6-(6-methoxy-2-methylbenzo[d]oxazol-7-yl)piperidin-2-one], the half-inhibitory concentration (IC50) on human orexin-1 receptor was 46 nM; on human orexin-2 receptor, 91 nM.

Turning to `COc1ccc2nc(C)oc2c1C1CCCC(=O)N1Cc1cccc(-c2csc(C)n2)c1` (stereo not shown) [Example 441, 6-(6-methoxy-2-methylbenzo[d]oxazol-7-yl)-1-(3-(2-methylthiazol-4-yl)benzyl)piperidin-2-one], the IC50 on human orexin-1 receptor stood at 16 nM; on human orexin-2 receptor, 62 nM.

As for `CCc1nc2ccc(OC)c(C3CCCC(=O)N3Cc3cccc(-c4csc(C)n4)c3)c2o1` (stereo not shown) [Example 442, 6-(2-ethyl-6-methoxybenzo[d]oxazol-7-yl)-1-(3-(2-methylthiazol-4-yl)benzyl)piperidin-2-one], the IC50 was 10 nM on human orexin-1 receptor and 33 nM at human orexin-2 receptor.

Take `COc1ccc2c(c1C1CCCC(=O)N1Cc1cccc(-c3csc(C)n3)c1)OCCO2` (stereo not shown) [Example 443, 6-(6-methoxy-2,3-dihydrobenzo[b][1,4]dioxin-5-yl)-1-(3-(2-methylthiazol-4-yl)benzyl)piperidin-2-one]: the IC50 was found to be 5 nM on human orexin-1 receptor and 13 nM on human orexin-2 receptor.

Regarding `COc1ccc2c(c1C1CCCC(=O)N1Cc1cccc(-c3ncc(C)s3)c1)OCCO2` (stereo not shown) [Example 444, 6-(6-methoxy-2,3-dihydrobenzo[b][1,4]dioxin-5-yl)-1-(3-(5-methylthiazol-2-yl)benzyl)piperidin-2-one], the IC50 was found to be 7 nM on human orexin-1 receptor and 8 nM on human orexin-2 receptor.

For the molecule `COc1ccc2ccccc2c1C1CCCC(=O)N1Cc1cccc(-c2ncccn2)c1` (stereo not shown) [Example 445, 6-(2-methoxynaphthalen-1-yl)-1-(3-(pyrimidin-2-yl)benzyl)piperidin-2-one], the IC50 at human orexin-1 receptor was 21 nM; on human orexin-2 receptor, 90 nM.

On to `COc1ccc2ccccc2c1C1CCCC(=O)N1Cc1cccc(-c2ncc(C)s2)c1` (stereo not shown) [Example 446, 6-(2-methoxynaphthalen-1-yl)-1-(3-(5-methylthiazol-2-yl)benzyl)piperidin-2-one], for which the IC50 at human orexin-1 receptor worked out at 12 nM; on human orexin-2 receptor, 59 nM.

`COc1ccc2ccccc2c1C1CCCC(=O)N1Cc1cccc(Oc2ccccc2)c1` (stereo not shown) [Example 447, 6-(2-methoxynaphthalen-1-yl)-1-(3-phenoxybenzyl)piperidin-2-one]: the IC50 on human orexin-1 receptor was found to be 112 nM; on human orexin-2 receptor, 92 nM.

Consider `COc1ccc2c(c1C1CCCC(=O)N1Cc1cccc(-c3csc(C)n3)c1)OCO2` (stereo not shown) [Example 448, 6-(5-methoxybenzo[d][1,3]dioxol-4-yl)-1-(3-(2-methylthiazol-4-yl)benzyl)piperidin-2-one], for which the IC50 came out at 17 nM at human orexin-1 receptor and 11 nM on human orexin-2 receptor.

Regarding `COc1ccc2c(c1C1CCCC(=O)N1Cc1ccc(OC(F)(F)F)cc1)OCO2` (stereo not shown) [Example 449, 6-(5-methoxybenzo[d][1,3]dioxol-4-yl)-1-(4-(trifluoromethoxy)benzyl)piperidin-2-one], the figures for the IC50 at human orexin-1 receptor and on human orexin-2 receptor were 351 nM and 23 nM, respectively.

As for `O=C1CCCCC(c2ccccc2-c2ccncc2)N1Cc1cccc(-c2nccs2)c1` (stereo not shown) [Example 450, 7-(2-(pyridin-4-yl)phenyl)-1-(3-(thiazol-2-yl)benzyl)azepan-2-one], the IC50 was 561 nM on human orexin-1 receptor and 15 nM at human orexin-2 receptor.

On to `O=C1CCCCC(c2ccccc2-c2cncs2)N1Cc1cccc(-c2nccs2)c1` (stereo not shown) [Example 451, 1-(3-(thiazol-2-yl)benzyl)-7-(2-(thiazol-5-yl)phenyl)azepan-2-one], for which the IC50 on human orexin-1 receptor was found to be 427 nM; on human orexin-2 receptor, 19 nM.

For `O=C1CCCCC(c2ccccc2-c2cscn2)N1Cc1cccc(-c2nccs2)c1` (stereo not shown) [Example 452, 1-(3-(thiazol-2-yl)benzyl)-7-(2-(thiazol-4-yl)phenyl)azepan-2-one], the IC50 at human orexin-1 receptor amounted to 105 nM; at human orexin-2 receptor, 15 nM.

Regarding `O=C1CCCCC(c2ccccc2-c2cccnc2)N1Cc1cccc(-c2nccs2)c1` (stereo not shown) [Example 453, 7-(2-(pyridin-3-yl)phenyl)-1-(3-(thiazol-2-yl)benzyl)azepan-2-one], the IC50 was found to be 381 nM on human orexin-1 receptor and 93 nM at human orexin-2 receptor.

`O=C1CCCCC(c2ccccc2-c2ccccc2)N1Cc1cccc(-c2nccs2)c1` (stereo not shown) [Example 454, 7-([1,1′-biphenyl]-2-yl)-1-(3-(thiazol-2-yl)benzyl)azepan-2-one]: the IC50 came to 182 nM at human orexin-1 receptor and 77 nM at human orexin-2 receptor.

For `COc1ccc2ncoc2c1C1CCCC(=O)N1Cc1cccc(-c2csc(C)n2)c1` (stereo not shown) [Example 455, 6-(6-methoxybenzo[d]oxazol-7-yl)-1-(3-(2-methylthiazol-4-yl)benzyl)piperidin-2-one], the IC50 on human orexin-1 receptor amounted to 57 nM; on human orexin-2 receptor it was 102 nM.

In the case of `O=C1CCCC(c2ccnn2-c2ccccc2)N1Cc1cccc(-c2ccccc2)c1` (stereo not shown) [Example 456, 1-([1,1′-biphenyl]-3-ylmethyl)-6-(1-phenyl-1H-pyrazol-5-yl)piperidin-2-one], the IC50 was 654 nM at human orexin-1 receptor and 716 nM on human orexin-2 receptor.

For the molecule `COc1ccc2c(c1C1CCCC(=O)N1Cc1cccc(-c3ccccc3)c1)OCO2` (stereo not shown) [Example 457, 1-([1,1′-biphenyl]-3-ylmethyl)-6-(5-methoxybenzo[d][1,3]dioxol-4-yl)piperidin-2-one], the IC50 at human orexin-1 receptor came out at 59 nM; on human orexin-2 receptor it was 30 nM.

Take `COc1ccc2c(c1C1CCCC(=O)N1Cc1cccc(Oc3ccccc3)c1)OCO2` (stereo not shown) [Example 458, 6-(5-methoxybenzo[d][1,3]dioxol-4-yl)-1-(3-phenoxybenzyl)piperidin-2-one]: the IC50 on human orexin-1 receptor is 142 nM; at human orexin-2 receptor it was 14 nM.

For `COc1ccc2c(c1C1CCCC(=O)N1Cc1csc(-c3ccccc3)n1)OCO2` (stereo not shown) [Example 459, 6-(5-methoxybenzo[d][1,3]dioxol-4-yl)-1-((2-phenylthiazol-4-yl)methyl)piperidin-2-one], the IC50 at human orexin-1 receptor was 108 nM; on human orexin-2 receptor it was 40 nM.

Take “rac-(3R*,5S*)-(3-chloro-4-(trifluoromethoxy)benzyl)-5-(2-ethoxy-6-fluorophenyl)-3-hydroxypyrrolidin-2-one [Example 429]”: the IC50 stood at 1160 nM on human orexin-1 receptor and 15 nM on human orexin-2 receptor.
